The text below walks through data of patent publication US9840509B2, “Heterocyclic compounds” (CADILA HEALTHCARE LIMITED, priority 2014, dated 2017).

In data set [1] the target is T1, recombinant purified human BTK (Homo sapiens, UniProt Q06187).
T1 construct: purchased SignalChem, USA
As to the kind of experiment: In vitro BTK kinase assay on ADP Glo platform. Format: biochemical. The note with it: 2 hr room temperature, read-out: In-vitro BTK inhibitory activity: IC50. The method, then:
Testing of Compounds of the Invention Biological Studies: In vitro BTK Inhibitory Activity Assay:
In vitro BTK inhibitory activity of test compounds were screened using BTK kinase assay on ADP Glo platform (Li, H., Totoritis, R. D., Lor, L. A., Schwartz, B., Caprioli, P., Jurewicz, A. J and Zhang, G., Assay Drug Dev. Technol., 2009, 7(6), 598-605). Briefly, fixed amount of recombinant purified human BTK (3 ng/reaction from SignalChem, USA) were incubated with increasing concentration of test compounds, in 1× kinase reaction buffer (40 mM Tris-Cl, pH7.5, 20 mM MgCl2, 2 mM MnCl2, 0.1 mg/ml BSA and 50 μM DTT). Enzymatic reaction was initiated by adding a substrate cocktail containing 50 µM of ATP (final concentration) and […] of polyGln4Tyr1 (Signal Chem) in total 25 μl of reaction, in round bottom white 96 well plate. The reaction mixture was incubated at room temperature for 2 hr. After 2 hr of incubation, 10 μl of the reaction mix was mixed with […] of ADP Glo reagent, in another round bottom white 96 well plate and incubated at room temperature for 40 min. This was followed by addition of kinase detection reagent (20 μl per reaction) and incubation at room temperature for 30 min. Finally, plate was read for luminescence at an integration time of 500 millisecond per well. Data were plotted taking Enzyme with no inhibitor set as the 100% kinase activity and for dose response curve, % Kinase activity was plotted against conc on Log scale and IC50 was determined by non linear curve fitting method using GraphPad Prism software 6. The in vitro BTK inhibitory activity (IC50) for representative compounds are listed in […]
For orientation: ADP-Glo first removes unused ATP, then detects ADP through luciferase.

The target of another data set is T2, CYP 2C9 (Homo sapiens, UniProt P11712).
T2 construct: from tissue; host or cells: human liver microsomes
T2 sequence (P11712 whole entry): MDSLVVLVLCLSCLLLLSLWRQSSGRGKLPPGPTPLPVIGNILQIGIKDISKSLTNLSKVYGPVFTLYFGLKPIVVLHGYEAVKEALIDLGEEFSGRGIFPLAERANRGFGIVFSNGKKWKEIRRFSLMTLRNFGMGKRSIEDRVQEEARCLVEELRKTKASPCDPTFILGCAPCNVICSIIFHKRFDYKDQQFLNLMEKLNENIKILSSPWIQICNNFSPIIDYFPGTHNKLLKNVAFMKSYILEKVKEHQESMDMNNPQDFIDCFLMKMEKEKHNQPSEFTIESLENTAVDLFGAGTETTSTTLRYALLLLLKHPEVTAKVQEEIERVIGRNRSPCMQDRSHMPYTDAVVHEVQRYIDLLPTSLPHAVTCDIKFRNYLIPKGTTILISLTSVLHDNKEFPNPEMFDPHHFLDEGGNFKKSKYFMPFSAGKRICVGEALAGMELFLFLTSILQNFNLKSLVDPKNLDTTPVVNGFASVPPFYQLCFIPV
As to the kind of experiment: CYP inhibition in human liver microsomes, 2C9. Format: in vitro ADME. The note with it: pH 7.4, @ 10 μM concn. As to the method:
(§1) CYP Inhibition Studies: CYP inhibition studies were performed with test compounds, at two concentrations ([…] and 10 μM), using human liver microsomes (Yao, M., Zhu, M., Sinz, M. W., Zhang, H., Humphreys, W. F., Rodrigues, A. D and Dai, R., Journal of Pharmaceutical and Biomedical Analysis, 2007, 44, 211-223; Walsky, R. L and Obach, R. S., Drug Metab. Dispos., 2004, 32, 647-660). Human liver microsomes were mixed with 100 mM phosphate buffer (pH 7.4) and probe substrate and warmed to […] in microcentrifuge tubes. Aliquots of this mixture (499 μL) were transferred to each pre-labeled microcentrifuge tubes, followed by addition of the 1 μL of inhibitors (test compound/CYP-specific positive control inhibitor) or control solvent (DMSO). Aliquots of this mixture (90 μL) were transferred to each pre-labeled microcentrifuge tubes in duplicate. Final solvent concentrations were 0.2% (v/v) or less. Incubations were commenced with the addition of 10 μL NADPH stock (assay concentration, 1 mM) to a final incubation volume of 100 μL and incubated in shaking water bath (at 37° C. and 100 rpm), for the period defined in Tables 1. Incubations were terminated by addition of 400 μL of termination solvent (CH3CN) containing internal standard. The terminated samples were vortex-mixed, centrifuged at 10000 rpm for 5 min and supernatant transferred into HPLC vials for LC-MS/MS analysis to monitor metabolites produced by marker CYP reactions. […] Animals
On the technique in general: Microsomes from liver hold many membrane-bound enzymes, among them those of drug oxidation.

The target in the next data set is T3, CYP 2C19 (Homo sapiens, UniProt P33261).
T3 construct: from tissue; host or cells: human liver microsomes
T3 sequence (P33261 whole entry): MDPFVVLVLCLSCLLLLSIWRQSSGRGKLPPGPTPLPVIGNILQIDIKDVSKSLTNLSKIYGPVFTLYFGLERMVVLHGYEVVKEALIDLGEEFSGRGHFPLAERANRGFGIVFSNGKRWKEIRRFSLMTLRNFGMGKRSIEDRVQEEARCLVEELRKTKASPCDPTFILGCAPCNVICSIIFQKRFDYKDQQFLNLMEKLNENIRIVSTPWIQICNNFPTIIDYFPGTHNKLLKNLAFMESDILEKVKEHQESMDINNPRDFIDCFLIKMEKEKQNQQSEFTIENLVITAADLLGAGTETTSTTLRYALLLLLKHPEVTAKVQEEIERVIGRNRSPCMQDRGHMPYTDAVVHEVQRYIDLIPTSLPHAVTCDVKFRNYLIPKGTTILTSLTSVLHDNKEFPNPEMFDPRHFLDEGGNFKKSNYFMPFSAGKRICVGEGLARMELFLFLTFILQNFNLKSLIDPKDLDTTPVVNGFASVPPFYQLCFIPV
The data set can be described thus: CYP inhibition in human liver microsomes, 2C19. Format: in vitro ADME. The note with it: pH 7.4, @ 10 μM concn. As to the method:
as §1

The target of the next data set is T4, CYP 3A4 (Homo sapiens, UniProt P08684).
T4 construct: from tissue; host or cells: human liver microsomes
T4 sequence (P08684 whole entry): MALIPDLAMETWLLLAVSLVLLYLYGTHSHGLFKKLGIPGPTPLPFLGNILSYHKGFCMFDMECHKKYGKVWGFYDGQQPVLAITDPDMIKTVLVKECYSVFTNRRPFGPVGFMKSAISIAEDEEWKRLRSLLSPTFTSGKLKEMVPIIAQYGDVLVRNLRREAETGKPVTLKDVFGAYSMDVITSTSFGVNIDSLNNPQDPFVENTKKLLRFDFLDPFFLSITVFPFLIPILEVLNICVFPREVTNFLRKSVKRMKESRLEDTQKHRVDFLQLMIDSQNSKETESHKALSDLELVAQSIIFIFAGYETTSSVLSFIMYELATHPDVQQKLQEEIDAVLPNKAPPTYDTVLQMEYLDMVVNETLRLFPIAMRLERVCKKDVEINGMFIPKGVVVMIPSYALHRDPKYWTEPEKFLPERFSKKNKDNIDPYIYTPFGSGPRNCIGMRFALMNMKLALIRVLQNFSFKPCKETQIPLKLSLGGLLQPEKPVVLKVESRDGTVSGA
As to the kind of experiment: CYP inhibition in human liver microsomes, 3A4. Format: in vitro ADME. Conditions: pH 7.4, @ 10 μM concn. The method, then:
as §1

The target in another data set is T5, CYP 2C8 (Homo sapiens, UniProt P10632).
T5 construct: from tissue; host or cells: human liver microsomes
T5 sequence (P10632 1-490): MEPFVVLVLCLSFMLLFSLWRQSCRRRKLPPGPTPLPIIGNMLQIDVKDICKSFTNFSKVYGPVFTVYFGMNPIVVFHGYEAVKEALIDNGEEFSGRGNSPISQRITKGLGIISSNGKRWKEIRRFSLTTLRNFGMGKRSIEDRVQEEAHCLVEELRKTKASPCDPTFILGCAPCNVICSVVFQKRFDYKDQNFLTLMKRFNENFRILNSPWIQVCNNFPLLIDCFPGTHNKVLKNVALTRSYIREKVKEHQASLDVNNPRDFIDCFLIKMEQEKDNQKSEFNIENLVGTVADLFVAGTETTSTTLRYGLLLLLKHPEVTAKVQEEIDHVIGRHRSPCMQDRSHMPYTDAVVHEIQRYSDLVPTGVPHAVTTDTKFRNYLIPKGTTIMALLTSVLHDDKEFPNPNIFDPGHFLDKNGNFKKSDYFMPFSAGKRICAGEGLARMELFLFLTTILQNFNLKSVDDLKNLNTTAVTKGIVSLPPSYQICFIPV
As to the kind of experiment: CYP inhibition in human liver microsomes, 2C8. The note with it: pH 7.4, @ 10 μM concn. The data set is classed as in vitro ADME. The method, then:
as §1

A further data set deals with T6, CYP 1A2 (Homo sapiens, UniProt P05177).
T6 construct: from tissue; host or cells: human liver microsomes
T6 sequence (P05177 1-516): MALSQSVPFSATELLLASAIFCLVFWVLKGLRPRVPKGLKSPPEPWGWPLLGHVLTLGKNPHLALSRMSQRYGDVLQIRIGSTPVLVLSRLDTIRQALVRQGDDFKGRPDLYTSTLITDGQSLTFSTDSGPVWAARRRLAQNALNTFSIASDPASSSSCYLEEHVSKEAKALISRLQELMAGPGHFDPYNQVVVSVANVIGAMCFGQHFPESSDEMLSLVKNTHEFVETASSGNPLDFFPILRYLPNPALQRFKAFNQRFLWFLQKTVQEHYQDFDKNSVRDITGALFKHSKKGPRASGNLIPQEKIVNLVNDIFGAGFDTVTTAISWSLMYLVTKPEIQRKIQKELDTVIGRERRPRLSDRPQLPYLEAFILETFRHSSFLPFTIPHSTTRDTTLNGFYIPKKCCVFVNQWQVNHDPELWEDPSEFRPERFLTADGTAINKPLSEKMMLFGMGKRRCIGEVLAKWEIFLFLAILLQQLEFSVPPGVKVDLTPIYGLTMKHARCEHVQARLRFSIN
As to the kind of experiment: CYP inhibition in human liver microsomes, 1A2. Conditions: pH 7.4, @ 10 μM concn. The data set is classed as in vitro ADME. As to the method:
as §1

The target of another data set is T7, CYP 2D6 (Homo sapiens, UniProt P10635).
T7 construct: from tissue; host or cells: human liver microsomes
T7 sequence (P10635 whole entry): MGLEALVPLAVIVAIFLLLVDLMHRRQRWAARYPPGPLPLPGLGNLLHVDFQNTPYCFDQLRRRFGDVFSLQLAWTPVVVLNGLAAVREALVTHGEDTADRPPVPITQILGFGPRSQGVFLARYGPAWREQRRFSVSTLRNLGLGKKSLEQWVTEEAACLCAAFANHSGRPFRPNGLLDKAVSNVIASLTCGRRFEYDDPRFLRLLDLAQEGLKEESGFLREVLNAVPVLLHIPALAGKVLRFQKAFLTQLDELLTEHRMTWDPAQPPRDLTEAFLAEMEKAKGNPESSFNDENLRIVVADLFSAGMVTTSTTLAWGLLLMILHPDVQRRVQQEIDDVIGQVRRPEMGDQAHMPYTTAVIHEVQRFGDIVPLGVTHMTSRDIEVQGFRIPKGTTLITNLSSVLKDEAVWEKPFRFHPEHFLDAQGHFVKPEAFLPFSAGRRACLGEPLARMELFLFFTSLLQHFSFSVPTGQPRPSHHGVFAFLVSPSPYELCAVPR
The data set can be described thus: CYP inhibition in human liver microsomes, 2D6. The data set is classed as in vitro ADME. The note with it: pH 7.4, @ 10 μM concn. As to the method: as §1

The structures appear in SMILES notation.

Broadly, the IC50 is the midpoint of a concentration-inhibition curve. The inhibition is the change of the read-out against control, counted positive when it falls. The low end stands for a weak effect, the high end for a strong effect.

T1 sequence (Q06187 whole entry): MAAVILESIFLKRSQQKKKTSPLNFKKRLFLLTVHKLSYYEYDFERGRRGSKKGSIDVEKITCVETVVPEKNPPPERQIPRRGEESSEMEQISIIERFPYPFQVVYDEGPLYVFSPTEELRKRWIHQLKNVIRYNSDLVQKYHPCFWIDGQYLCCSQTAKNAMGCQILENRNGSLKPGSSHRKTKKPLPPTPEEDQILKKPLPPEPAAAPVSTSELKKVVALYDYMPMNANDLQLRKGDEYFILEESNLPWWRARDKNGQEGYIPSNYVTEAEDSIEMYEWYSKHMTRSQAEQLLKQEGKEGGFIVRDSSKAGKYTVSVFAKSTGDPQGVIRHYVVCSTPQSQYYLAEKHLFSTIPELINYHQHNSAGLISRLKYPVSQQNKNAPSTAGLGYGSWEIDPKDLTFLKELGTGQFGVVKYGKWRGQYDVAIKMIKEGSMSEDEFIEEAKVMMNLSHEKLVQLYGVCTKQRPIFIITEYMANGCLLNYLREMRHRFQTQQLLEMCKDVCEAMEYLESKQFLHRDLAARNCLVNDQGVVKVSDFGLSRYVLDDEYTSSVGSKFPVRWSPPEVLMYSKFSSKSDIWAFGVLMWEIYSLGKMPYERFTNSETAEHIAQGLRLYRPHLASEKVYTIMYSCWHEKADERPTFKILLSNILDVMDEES

As to `C=CC(=O)N1CC2CC(n3nc(-c4ccc(Oc5ccccc5)cc4)c4c(N)ncnc43)CC2C1` (stereo not drawn) [Compound 1, 1-(5-(4-amino-3-(4-phenoxyphenyl)-1H-pyrazolo[3,4-d]pyrimidin-1-yl)hexahydrocyclopenta[c]pyrrol-2(1H)-yl)prop-2-en-1-one], in data set [1], the IC50 turned out to be 1.3 nM. Moreover, the inhibition at 10 μM against CYP 2C9, against CYP 2C19, on CYP 3A4, against CYP 2C8, against CYP 1A2 and at CYP 2D6 was below 50% each time.

As to `C=CC(=O)N1CC2CC(n3cc(-c4ccc(Oc5ccccc5)cc4)c4c(N)ncnc43)CC2C1` (stereo not drawn) [Compound 31, 1-(5-(4-amino-5-(4-phenoxyphenyl)-7H-pyrrolo[2,3-d]pyrimidin-7-yl)hexahydrocyclopenta[c]pyrrol-2(1H)-yl)prop-2-en-1-one], in data set [1], the IC50 came to 0.6 nM. Moreover, the inhibition at 10 μM against CYP 2C9, against CYP 2C19, on CYP 3A4, on CYP 2C8, at CYP 1A2 and against CYP 2D6 was below 50% each time.

`CN(C)C/C=C/C(=O)N1CC2CC(n3nc(-c4ccc(-c5nnc(-c6ccccn6)o5)cc4)c4c(N)ncnc43)CC2C1` (stereo not drawn) [Compound 57, (E)-1-(5-(4-amino-3-(4-(5-(pyridin-2-yl)-1,3,4-oxadiazol-2-yl)phenyl)-1H-pyrazolo[3,4-d]pyrimidin-1-yl)hexahydrocyclopenta[c]pyrrol-2(1H)-yl)-4-(dimethylamino)but-2-en-1-one]: in data set [1], the IC50 is 100 nM. Moreover, the inhibition at 10 μM on CYP 2C9 was above 50%; at CYP 2C19, below 50%; on CYP 3A4 it was above 50%; against CYP 2C8 it was above 50%; at CYP 1A2, below 50%; on CYP 2D6 it was below 50%.

In the case of `CN(C)C/C=C/C(=O)N1CC2CC(n3nc(-c4ccc(-c5nnc(-c6cnccn6)s5)cc4)c4c(N)ncnc43)CC2C1` (stereo not drawn) [Compound 56, (E)-1-(5-(4-amino-3-(4-(5-(pyrazin-2-yl)-1,3,4-thiadiazol-2-yl)phenyl)-1H-pyrazolo[3,4-d]pyrimidin-1-yl)hexahydrocyclopenta[c]pyrrol-2(1H)-yl)-4-(dimethylamino)but-2-en-1-one], in data set [1], the IC50 came out at 50 nM. Besides, the inhibition at 10 μM against CYP 2C9 was above 50%; against CYP 2C19, below 50%; at CYP 3A4, above 50%; against CYP 2C8 it was above 50%; against CYP 1A2, above 50%; at CYP 2D6, below 50%.

Take `C=CC(=O)N1CC2CC(n3nc(-c4ccc5nc(-c6ccccc6)sc5c4)c4c(N)ncnc43)CC2C1` (stereo not drawn) [Compound 14, 1-(5-(4-amino-3-(2-phenylbenzo[d]thiazol-6-yl)-1H-pyrazolo[3,4-d]pyrimidin-1-yl)hexahydrocyclopenta[c]pyrrol-2(1H)-yl)prop-2-en-1-one]: the IC50 in data set [1] worked out at 1.4 nM. Moreover, the inhibition at 10 μM against CYP 2C9, on CYP 2C19, against CYP 3A4, on CYP 2C8, on CYP 1A2 and on CYP 2D6 was below 50% each time.

Turning to `C=CC(=O)N1CC2CC(n3nc(-c4ccc(C(=O)Nc5nc6ccccc6s5)cc4)c4c(N)ncnc43)CC2C1` (stereo not drawn) [Compound 34, 4-(1-(2-acryloyloctahydrocyclopenta[c]pyrrol-5-yl)-4-amino-1H-pyrazolo[3,4-d]pyrimidin-3-yl)-N-(benzo[d]thiazol-2-yl)benzamide], the IC50 in data set [1] was 359 nM. In addition, the inhibition at 10 μM against CYP 2C9 is below 50%; against CYP 2C19, above 50%; against CYP 3A4, above 50%; on CYP 2C8, below 50%; against CYP 1A2, above 50%; against CYP 2D6, below 50%.

On to `C=CC(=O)N1CC2CC(n3nc(-c4ccc(Oc5ccccn5)cc4)c4c(N)ncnc43)CC2C1` (stereo not drawn) [Compound 43, 1-(5-(4-amino-3-(4-(pyridin-2-yloxy)phenyl)-1H-pyrazolo[3,4-d]pyrimidin-1-yl)hexahydrocyclopenta[c]pyrrol-2(1H)-yl)prop-2-en-1-one], for which the IC50 in data set [1] was 2 nM. Besides, the inhibition at 10 μM at CYP 2C9, against CYP 2C19, on CYP 3A4, against CYP 2C8, on CYP 1A2 and against CYP 2D6 was below 50% in each case.

In the case of `C=CC(=O)N1CC2CC(n3nc(-c4ccc5ncoc5c4)c4c(N)ncnc43)CC2C1` (stereo not drawn) [Compound 17, 1-(5-(4-amino-3-(benzo[d]oxazol-6-yl)-1H-pyrazolo[3,4-d]pyrimidin-1-yl)hexahydrocyclopenta[c]pyrrol-2(1H)-yl)prop-2-en-1-one], in data set [1], the IC50 stood at 5 nM. For the same compound, the inhibition at 10 μM against CYP 2C9 was below 50%; on CYP 2C19 it was below 50%; at CYP 3A4, above 50%; against CYP 2C8 it was below 50%; at CYP 1A2, below 50%; against CYP 2D6, below 50%.

In the case of `C=CC(=O)N1CC2CC(n3nc(-c4ccc5ocnc5c4)c4c(N)ncnc43)CC2C1` (stereo not drawn) [Compound 22, 1-(5-(4-amino-3-(benzo[d]oxazol-5-yl)-1H-pyrazolo[3,4-d]pyrimidin-1-yl)hexahydrocyclopenta[c]pyrrol-2(1H)-yl)prop-2-en-1-one], in data set [1], the IC50 is 40 nM. Also, the inhibition at 10 μM against CYP 2C9 was below 50%; on CYP 2C19 it was below 50%; on CYP 3A4 it was below 50%; at CYP 2C8 it was below 50%; on CYP 1A2, below 50%; at CYP 2D6, above 50%.
